The values below come from ChEMBL document CHEMBL1201862, “PubChem BioAssay data set” (2004).

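Interpolation was linear, between the two tested concentrations surrounding the appropriate level; five concentrations were tested over 48 hours in 96-well plates. Here, GI50 denotes the concentration required for 50% inhibition of growth.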 Activity calls are given as the source filed them. No stated cut-off is given here; in the data, active = GI50 up to about 1.1 µM and inactive = higher.

Test systems include OVCAR-4; NCI/ADR-RES; SN12C; UACC-62; MDA-N; MCF7; SF-539; IGROV-1; MDA-MB-231; SK-MEL-2; NCI-H23; RXF 393; CCRF-CEM; K562; HCC 2998; HCT-116; ACHN; OVCAR-5; SF-268; NCI-H522.
Holding throughout (experiment): DTP human tumour cell line panel, 48 h

For the compound `CCCCCCCCOc1ccc(/C=C/C2=[N+](CCO)CCO2)cc1`, the GI50 is 3.6 µM (inactive) with OVCAR-4; 12.6 µM (inactive) with NCI/ADR-RES; 3.18 µM (inactive) in the assay on SN12C; 4.28 µM (inactive) in the assay on UACC-62; 3.56 µM (inactive) with MDA-N; 4.65 µM (inactive) in the assay with MCF7. For the same compound, the GI50 with SF-539 was 3.12 µM (inactive); in the assay with IGROV-1, 3.83 µM (inactive); in the assay with MDA-MB-231, 3.78 µM (inactive); in the assay with SK-MEL-2, 2.3 µM (inactive); in the assay on NCI-H23 it was 2.23 µM (inactive); in the assay with RXF 393, 1.8 µM (inactive). Also, the GI50 in the assay on CCRF-CEM is 3.08 µM (inactive); in the assay on K562, 2.07 µM (inactive); in the assay with HCC 2998 it was 3.47 µM (inactive); in the assay with HCT-116 it was 2.7 µM (inactive); in the assay on ACHN, 3.69 µM (inactive); in the assay with OVCAR-5, 9.42 µM (inactive). In addition, the GI50 in the assay with SF-268 was 5.27 µM (inactive); in the assay with NCI-H522, 2.02 µM (inactive).
Turning to `ClC1(Cl)C2CCOC21n1cnc2ccccc21` (configuration not stated), the GI50 in the assay with OVCAR-4 was 67.3 µM (inactive); in the assay with NCI/ADR-RES, > 100 µM (inactive); with SN12C, > 100 µM (inactive); in the assay with UACC-62 it was 92.9 µM (inactive); in the assay with MDA-N, > 100 µM (inactive); with MCF7, > 100 µM (inactive). Moreover, the GI50 was > 100 µM (inactive) in the assay with SF-539; > 100 µM (inactive) in the assay with IGROV-1; > 100 µM (inactive) in the assay with MDA-MB-231; > 100 µM (inactive) in the assay with SK-MEL-2; 45 µM (inactive) in the assay on NCI-H23; > 100 µM (inactive) in the assay on RXF 393. Besides, the GI50 in the assay on CCRF-CEM, in the assay on K562, in the assay on HCC 2998, with HCT-116, with OVCAR-5 and in the assay with SF-268 was > 100 µM (inactive) each time. For the same compound, the GI50 with NCI-H522 is 14.6 µM (inactive).
On to `N#Cc1c(C#N)c(-c2ccccc2)n(/N=C\c2ccccc2)c1N`, for which the GI50 in the assay with OVCAR-4 was 12.9 µM (inactive); in the assay on NCI/ADR-RES, 11.2 µM (inactive); with SN12C it was 47 µM (inactive); with UACC-62, 12.5 µM (inactive); with MDA-N, 36.1 µM (inactive); in the assay with MCF7, 11.8 µM (inactive). The GI50 was 15.9 µM (inactive) with SF-539; 15.6 µM (inactive) with IGROV-1; 16 µM (inactive) in the assay on MDA-MB-231; 22.2 µM (inactive) in the assay with SK-MEL-2; 24.4 µM (inactive) in the assay on NCI-H23; 17.9 µM (inactive) with RXF 393. Further, the GI50 with CCRF-CEM is 12.3 µM (inactive); in the assay with K562, 13.2 µM (inactive); with HCC 2998, 19.7 µM (inactive); in the assay on HCT-116, 29.4 µM (inactive); in the assay on ACHN it was 14.2 µM (inactive); in the assay on OVCAR-5, 29 µM (inactive). Further, the values for the GI50 in the assay on SF-268 and with NCI-H522 were 28.8 µM (inactive) and 11.6 µM (inactive), respectively.
For the compound `CNNC1=NS(=O)(=O)c2cc(C(=O)OC)c(Cl)cc2S1`, the GI50 in the assay with OVCAR-4, in the assay with NCI/ADR-RES, in the assay on SN12C, in the assay on UACC-62, in the assay with MDA-N and with MCF7 was > 10 µM (inactive) in each case. Moreover, the GI50 in the assay with SF-539, with IGROV-1, with MDA-MB-231, in the assay with SK-MEL-2, in the assay on NCI-H23 and in the assay on RXF 393 was > 10 µM (inactive) throughout. Besides, the GI50 in the assay on CCRF-CEM, in the assay with K562, in the assay with HCC 2998, in the assay with HCT-116, with ACHN and in the assay with OVCAR-5 was > 10 µM (inactive) each time. Also, the GI50 in the assay with SF-268 and in the assay with NCI-H522 was > 10 µM (inactive) throughout.
Consider `CCCCc1ccc(Nc2cc(=O)n(C)c(=O)[nH]2)cc1`, for which the GI50 was 32.8 µM (inactive) with OVCAR-4; 57.4 µM (inactive) in the assay on NCI/ADR-RES; > 100 µM (inactive) with SN12C; > 100 µM (inactive) in the assay on UACC-62; > 100 µM (inactive) in the assay with MDA-N; 22.9 µM (inactive) in the assay on MCF7. For the same compound, the GI50 with SF-539 was 84.3 µM (inactive); with IGROV-1, > 100 µM (inactive); with MDA-MB-231, 89.7 µM (inactive); in the assay on SK-MEL-2, > 100 µM (inactive); in the assay with NCI-H23, > 100 µM (inactive); in the assay on RXF 393 it was > 100 µM (inactive). Moreover, the GI50 in the assay with K562 is 85.7 µM (inactive); in the assay with HCC 2998 it was > 100 µM (inactive); in the assay with HCT-116, 72.6 µM (inactive); in the assay with ACHN, > 100 µM (inactive); in the assay on OVCAR-5, > 100 µM (inactive); in the assay with SF-268, 64.4 µM (inactive). In the assay on NCI-H522, the GI50 was > 100 µM (inactive).
Turning to `N=c1sc(N2CCOCC2)nn1CC(=O)c1ccccc1`, the GI50 is > 100 µM (inactive) in the assay on OVCAR-4; > 100 µM (inactive) in the assay with NCI/ADR-RES; > 100 µM (inactive) in the assay on SN12C; > 100 µM (inactive) in the assay with UACC-62; > 100 µM (inactive) in the assay with MDA-N; 53.5 µM (inactive) in the assay on MCF7. For the same compound, the GI50 with IGROV-1, in the assay with MDA-MB-231, with SK-MEL-2, in the assay with NCI-H23, with RXF 393 and with CCRF-CEM was > 100 µM (inactive) in each case. Moreover, the GI50 in the assay with K562, with HCC 2998, in the assay with HCT-116, with ACHN, with OVCAR-5 and with SF-268 was > 100 µM (inactive) each time. Further, in the assay with NCI-H522, the GI50 was > 100 µM (inactive).
Turning to `Cc1cccc(C)c1/N=N/c1ccc(O)c(CN(C)C)c1`, the GI50 in the assay with OVCAR-4 was 47.9 µM (inactive); with NCI/ADR-RES, 41.2 µM (inactive); in the assay with SN12C, > 100 µM (inactive); in the assay with UACC-62, 26.7 µM (inactive); in the assay with MDA-N, 50.8 µM (inactive); in the assay with MCF7 it was 89.1 µM (inactive). Besides, the GI50 in the assay with SF-539 is 79.4 µM (inactive); in the assay on IGROV-1, 26.3 µM (inactive); with MDA-MB-231, > 100 µM (inactive); in the assay on SK-MEL-2, 25.2 µM (inactive); in the assay on NCI-H23 it was 60.1 µM (inactive); with RXF 393 it was 0.716 µM (active). For the same compound, the GI50 in the assay on CCRF-CEM was 34.8 µM (inactive); in the assay with K562 it was 28.6 µM (inactive); with HCC 2998, 19.9 µM (inactive); with HCT-116, 68.7 µM (inactive); in the assay with ACHN, 36.2 µM (inactive); in the assay with OVCAR-5, 28.3 µM (inactive). In addition, the figures for the GI50 in the assay with SF-268 and with NCI-H522 were 47 µM (inactive) and 42.6 µM (inactive), respectively.
Turning to `COc1ccc(C(=O)NCCC2CN(S(=O)(=O)C(F)(F)F)c3ccccc32)c(OC)c1` (configuration not stated), the GI50 in the assay on OVCAR-4 was 69.3 µM (inactive); in the assay on NCI/ADR-RES, 23.1 µM (inactive); in the assay with UACC-62, 26.9 µM (inactive); with MDA-N it was 33.2 µM (inactive); in the assay on MCF7 it was 52.1 µM (inactive); in the assay with IGROV-1, 61.4 µM (inactive). Further, the GI50 was > 100 µM (inactive) in the assay on MDA-MB-231; 53.6 µM (inactive) with SK-MEL-2; 32.8 µM (inactive) in the assay with NCI-H23; > 100 µM (inactive) in the assay on RXF 393; 17.2 µM (inactive) with CCRF-CEM; 28.3 µM (inactive) in the assay with K562. For the same compound, the GI50 with HCC 2998 is 60.4 µM (inactive); with HCT-116, 35.8 µM (inactive); in the assay on ACHN, 33.2 µM (inactive); with OVCAR-5, > 100 µM (inactive); with NCI-H522, 19.3 µM (inactive).
As to `O=C(O)CSc1ccc(N=C=S)cc1`, the GI50 was > 100 µM (inactive) in the assay on OVCAR-4; > 100 µM (inactive) in the assay on NCI/ADR-RES; 39.3 µM (inactive) with SN12C; 61 µM (inactive) in the assay on UACC-62; 54.1 µM (inactive) with MDA-N; 56 µM (inactive) with MCF7. The GI50 with SF-539 was 30.5 µM (inactive); with IGROV-1 it was > 100 µM (inactive); in the assay on MDA-MB-231 it was 84.1 µM (inactive); in the assay on SK-MEL-2 it was 73.3 µM (inactive); with NCI-H23, 78.9 µM (inactive); with RXF 393 it was 28.4 µM (inactive). For the same compound, the GI50 with CCRF-CEM is 12.6 µM (inactive); in the assay on HCC 2998, 31.1 µM (inactive); in the assay on HCT-116, 64.3 µM (inactive); in the assay on ACHN, > 100 µM (inactive); with OVCAR-5, > 100 µM (inactive); with SF-268, 71.6 µM (inactive). Moreover, the GI50 in the assay with NCI-H522 is 19.1 µM (inactive).
Turning to `Nc1nc(-c2ccccc2)nc2oc(-c3cccs3)nc12`, the GI50 is > 100 µM (inactive) in the assay on NCI/ADR-RES; > 100 µM (inactive) in the assay on SN12C; > 100 µM (inactive) with UACC-62; > 10 µM (inactive) in the assay with MDA-N; > 100 µM (inactive) with MCF7; > 100 µM (inactive) in the assay with SF-539. Besides, the GI50 in the assay with IGROV-1, with MDA-MB-231, in the assay on SK-MEL-2, with NCI-H23, with RXF 393 and in the assay on CCRF-CEM was > 100 µM (inactive) each time. In addition, the GI50 in the assay with K562, in the assay on HCC 2998, with HCT-116, in the assay with ACHN, in the assay with OVCAR-5 and with SF-268 was > 100 µM (inactive) in each case. Moreover, the GI50 in the assay with NCI-H522 was > 100 µM (inactive).

Usually GI50 stands for the concentration giving 50% growth inhibition.
